In ChEMBL document CHEMBL5634077, “Recent advances in 1,2,3- and 1,2,4-triazole hybrids as antimicrobials and their SAR: A critical review” (2023):
Values after ≈ are worked out from the molar mass of the structure shown.

What was measured:
[1] = tested on: Staphylococcus aureus; test: Antibacterial activity against Staphylococcus aureus assessed as inhibition of bacterial growth; assay type: functional
[2] = tested on: Candida albicans; test: Antifungal activity against Candida albicans assessed as inhibition of fungal growth; assay type: functional
[3] = tested on: Escherichia coli; test: Antibacterial activity against Escherichia coli assessed as inhibition of bacterial growth; assay type: functional
[4] = tested on: Aspergillus flavus; test: Antifungal activity against Aspergillus flavus assessed as inhibition of fungal growth; assay type: functional
[5] = tested on: Rhizopus; test: Antifungal activity against Rhizopus assessed as inhibition of fungal growth; assay type: functional
[6] = tested on: Klebsiella pneumoniae; test: Antibacterial activity against Klebsiella pneumoniae assessed as inhibition of bacterial growth; assay type: functional
[7] = tested on: Escherichia coli; test: Antibacterial activity against Escherichia coli ATCC 8739 assessed as reduction in bacterial growth by micro-broth dilution method; assay type: functional
[8] = tested on: Aspergillus niger; test: […] activity against Aspergillus niger NCIM 2191 assessed as reduction in […] by micro-broth dilution method; assay type: functional
[9] = tested on: Aspergillus fumigatus; test: […] activity against Aspergillus fumigatus NCIM 2081 assessed as reduction in […] by micro-broth dilution method; assay type: functional
[10] = tested on: Candida albicans; test: Antifungal activity against Candida albicans NCIM 2087 assessed as fungal growth inhibition; assay type: functional
[11] = tested on: Staphylococcus aureus; test: Antibacterial activity against Staphylococcus aureus ATCC 29213 assessed as reduction in bacterial growth by micro-broth dilution method; assay type: functional
[12] = tested on: Pseudomonas aeruginosa; test: Antibacterial activity against Pseudomonas aeruginosa MCCB 0035 assessed as reduction in bacterial growth by micro-broth dilution method; assay type: functional
[13] = tested on: Bacillus cereus; test: Antibacterial activity against Bacillus cereus NCIM 2156 assessed as reduction in bacterial growth incubated for 18 to 24 hrs by broth microdilution method; assay type: functional; details: time 18-24 hrs
[14] = tested on: Staphylococcus aureus; test: Antibacterial activity against Staphylococcus aureus NCIM 2079 assessed as reduction in bacterial growth incubated for 18 to 24 hrs by broth microdilution method; assay type: functional; details: time 18-24 hrs
[15] = tested on: Proteus mirabilis; test: Antibacterial activity against Proteus mirabilis NCIM 2241 assessed as reduction in bacterial growth incubated for 18 to 24 hrs by broth microdilution method; assay type: functional; details: time 18-24 hrs
[16] = tested on: Pseudomonas aeruginosa; test: Antibacterial activity against Pseudomonas aeruginosa NCIM 2036 assessed as reduction in bacterial growth incubated for 18 to 24 hrs by broth microdilution method; assay type: functional; details: time 18-24 hrs
[17] = tested on: Escherichia coli; test: Antibacterial activity against Escherichia coli NCIM 2065 assessed as reduction in bacterial growth incubated for 18 to 24 hrs by broth microdilution method; assay type: functional; details: time 18-24 hrs
[18] = tested on: Proteus vulgaris; test: Antibacterial activity against Proteus vulgaris NCIM 2027 assessed as reduction in bacterial growth incubated for 18 to 24 hrs by broth microdilution method; assay type: functional; details: time 18-24 hrs
[19] = tested on: Bacillus subtilis; test: Antibacterial activity against Bacillus subtilis NCIM 2063 assessed as reduction in bacterial growth incubated for 18 to 24 hrs by broth microdilution method; assay type: functional; details: time 18-24 hrs
[20] = tested on: Staphylococcus aureus; test: Antibacterial activity against Staphylococcus aureus ATCC 6538p assessed as reduction in microbial growth; assay type: functional
[21] = tested on: Bacillus subtilis; test: Antibacterial activity against Bacillus subtilis ATCC 6633 assessed as reduction in microbial growth; assay type: functional
[22] = tested on: Escherichia coli; test: Antibacterial activity against Escherichia coli ATCC 25922 assessed as reduction in microbial growth; assay type: functional
[23] = tested on: Salmonella typhimurium; test: Antibacterial activity against Salmonella typhimurium SL1344 assessed as reduction in microbial growth; assay type: functional, Salmonella enterica subsp. enterica serovar Typhimurium; details: Salmonella enterica
[24] = tested on: Micrococcus luteus; test: Antibacterial activity against Micrococcus luteus IFC 12708 assessed as reduction in microbial growth; assay type: functional
[25] = tested on: Proteus vulgaris; test: Antibacterial activity against Proteus vulgaris ATCC 3851 assessed as reduction in microbial growth; assay type: functional
[26] = tested on: Bacillus subtilis; test: Antibacterial activity against Bacillus subtilis assessed as reduction in bacterial growth; assay type: functional
[27] = tested on: Staphylococcus aureus; test: Antibacterial activity against Staphylococcus aureus; assay type: functional
[28] = tested on: Aspergillus niger; test: Antifungal activity against Aspergillus niger assessed as fungal growth inhibition; assay type: functional
[29] = tested on: Escherichia coli; test: Antibacterial activity against Escherichia coli assessed as reduction in bacterial growth; assay type: functional
[30] = tested on: Candida albicans; test: Antimicrobial activity against Candida albicans assessed as diameter of inhibition zone incubated for 24 hrs by disc-diffusion method; assay type: functional
[31] = tested on: Escherichia coli; test: Antimicrobial activity against Escherichia coli assessed as diameter of inhibition zone incubated for 24 hrs by disc-diffusion method; assay type: functional
[32] = tested on: Staphylococcus aureus; test: Antimicrobial activity against Staphylococcus aureus assessed as diameter of inhibition zone incubated for 24 hrs by disc-diffusion method; assay type: functional
[33] = tested on: Klebsiella pneumoniae; test: Antimicrobial activity against Klebsiella pneumoniae assessed as diameter of inhibition zone incubated for 24 hrs by disc-diffusion method; assay type: functional
[34] = tested on: Escherichia coli; test: Antibacterial activity against Escherichia coli assessed as reduction in bacterial growth by broth microdilution method; assay type: functional
[35] = tested on: Pseudomonas aeruginosa; test: Antibacterial activity against Pseudomonas aeruginosa MTCC 1034 assessed as reduction in bacterial growth; assay type: functional
[36] = tested on: Proteus vulgaris; test: Antibacterial activity against Proteus vulgaris assessed as reduction in bacterial growth; assay type: functional
[37] = tested on: Micrococcus luteus; test: Antibacterial activity against Micrococcus luteus assessed as reduction in microbial growth; assay type: functional
[38] = tested on: Bacillus subtilis; test: Antibacterial activity against Bacillus subtilis MTCC 441 assessed as reduction in bacterial growth; assay type: functional
[39] = tested on: Candida albicans; test: Antifungal activity against Candida albicans assessed as diameter of inhibition zone at 50 to 100 ug/ml by disc-diffusion method; assay type: functional; details: dose 50-100 µg/ml
[40] = tested on: Aspergillus flavus; test: Antifungal activity against Aspergillus flavus assessed as diameter of inhibition zone at 50 to 100 ug/ml by disc-diffusion method; assay type: functional; details: dose 50-100 µg/ml

Structure (SMILES): COc1cc(N2CCC(c3n[nH]c(=S)n3-c3cccc(C(F)(F)F)c3)CC2)ccc1Cl
- MIC [1]: 4 µg/mL (≈ 8.53 µM)
- MIC [2]: 8 µg/mL (≈ 17.1 µM)
- MIC [3]: 4 µg/mL (≈ 8.53 µM)
- MIC [4]: 4 µg/mL (≈ 8.53 µM)
- MIC [5]: 8 µg/mL (≈ 17.1 µM)
- MIC [6]: 8 µg/mL (≈ 17.1 µM)

Structure (SMILES): COc1cc(N2CCC(c3n[nH]c(=S)n3-c3ccc(Cl)cc3)CC2)ccc1Cl
- MIC [1]: 8 µg/mL (≈ 18.4 µM)
- MIC [2]: 4 µg/mL (≈ 9.19 µM)
- MIC [3]: 4 µg/mL (≈ 9.19 µM)
- MIC [4]: 8 µg/mL (≈ 18.4 µM)
- MIC [5]: 8 µg/mL (≈ 18.4 µM)
- MIC [6]: 8 µg/mL (≈ 18.4 µM)

Structure (SMILES): O=c1cc(-c2ccccc2)c2cc(F)ccc2n1Cc1nnc2n1N=C(c1ccccc1)CS2
- MIC [7]: 8 µg/mL (≈ 17.1 µM)
- MIC [8]: 4 µg/mL (≈ 8.56 µM)
- MIC [9]: 4 µg/mL (≈ 8.56 µM)
- MIC [10]: 2 µg/mL (≈ 4.28 µM)
- MIC [11]: 2 µg/mL (≈ 4.28 µM)
- MIC [12]: 8 µg/mL (≈ 17.1 µM)

Structure (SMILES): NC(=O)NCn1nc(NCCCNc2ccnc3cc(Cl)ccc23)n(N)c1=S
- MIC [13]: 3.12 µg/mL (≈ 7.41 µM)
- MIC [14]: 6.25 µg/mL (≈ 14.8 µM)
- MIC [15]: 12.5 µg/mL (≈ 29.6 µM)
- MIC [16]: 50 µg/mL (≈ 119 µM)
- MIC [17]: 3.12 µg/mL (≈ 7.41 µM)
- MIC [18]: 12.5 µg/mL (≈ 29.6 µM)
- MIC [19]: 12.5 µg/mL (≈ 29.6 µM)

Structure (SMILES): COc1cc(N2CCC(c3n[nH]c(=S)n3-c3cc(Cl)cc(Cl)c3)CC2)ccc1Cl
- MIC [1]: 16 µg/mL (≈ 34.1 µM)
- MIC [2]: 16 µg/mL (≈ 34.1 µM)
- MIC [3]: 8 µg/mL (≈ 17 µM)
- MIC [4]: 32 µg/mL (≈ 68.1 µM)
- MIC [5]: 32 µg/mL (≈ 68.1 µM)
- MIC [6]: 8 µg/mL (≈ 17 µM)

Structure (SMILES): Cc1c(-c2nn(-c3ccccc3)cc2C2SCC(=O)N2c2ccc(F)cc2)nnn1-c1ccccc1 (stereo unspecified)
- MIC [20]: 1.56 µg/mL
- MIC [21]: 1.56 µg/mL
- MIC [22]: 1.56 µg/mL
- MIC [23]: 1.56 µg/mL
- MIC [24]: 1.56 µg/mL
- MIC [25]: 1.56 µg/mL

Structure (SMILES): CC(=O)NCn1nc(NCCCNc2ccnc3cc(Cl)ccc23)n(N)c1=S
- MIC [13]: 6.25 µg/mL (≈ 14.8 µM)
- MIC [14]: 6.25 µg/mL (≈ 14.8 µM)
- MIC [15]: 12.5 µg/mL (≈ 29.7 µM)
- MIC [16]: 25 µg/mL (≈ 59.4 µM)
- MIC [17]: 12.5 µg/mL (≈ 29.7 µM)
- MIC [18]: 12.5 µg/mL (≈ 29.7 µM)
- MIC [19]: 12.5 µg/mL (≈ 29.7 µM)

Structure (SMILES): Cc1ccc(NC(=O)Cn2cc(COc3ccc(C(=O)/C=C/c4ccccc4)cc3)nn2)cc1
- MIC [26]: 13 µM
- MIC [27]: 13 µM (≈ 5.88 µg/mL)

Structure (SMILES): COc1ccc(NC(=O)NCc2cn(CC(=O)Nc3ccc(C(F)(F)F)cc3)nn2)cc1
- MIC [27]: 27 µM (≈ 12.1 µg/mL)

Structure (SMILES): O=C(Cn1cc(COc2ccc(C(=O)/C=C/c3ccccc3)cc2)nn1)Nc1ccc([N+](=O)[O-])cc1
- MIC [28]: 12 µM (≈ 5.8 µg/mL)
- MIC [29]: 12 µM (≈ 5.8 µg/mL)

Structure (SMILES): COc1cc(/C=N/n2c(-c3ccc(Cl)cc3Cl)n[nH]c2=S)ccc1O
- diameter of the inhibition zone (DIZ) [30]: 3 mm
- diameter of the inhibition zone (DIZ) [31]: 3 mm
- diameter of the inhibition zone (DIZ) [32]: 3 mm
- diameter of the inhibition zone (DIZ) [33]: 3 mm

Structure (SMILES): CC(C)Cc1ccc(C(C)C(=O)NC(Cc2cn(Cc3cn(CC(=O)Nc4ccccc4[N+](=O)[O-])nn3)c3ccccc23)C(=O)NC(Cc2ccccc2)C(N)=O)cc1 (stereo unspecified)
- MIC [34]: 25 µg/mL (≈ 31.3 µM)

Structure (SMILES): COc1cc(N2CCC(c3n[nH]c(=S)n3-c3cccc(Cl)c3)CC2)ccc1Cl
- MIC [1]: 4 µg/mL (≈ 9.19 µM)
- MIC [2]: 8 µg/mL (≈ 18.4 µM)
- MIC [3]: 8 µg/mL (≈ 18.4 µM)
- MIC [4]: 4 µg/mL (≈ 9.19 µM)
- MIC [5]: 8 µg/mL (≈ 18.4 µM)
- MIC [6]: 4 µg/mL (≈ 9.19 µM)

Structure (SMILES): CC1(C)S[C@@H]2[C@H](NC(=O)[C@H](N)c3ccccc3)C(=O)N2[C@H]1C(=O)O [AMPICILLIN]
- MIC [35]: 0.5 µg/mL (≈ 1.43 µM)
- MIC [7]: 1 µg/mL (≈ 2.86 µM)
- MIC [20]: 1.56 µg/mL
- MIC [26]: 1.56 µg/mL
- MIC [21]: 1.56 µg/mL
- MIC [36]: 1.56 µg/mL (≈ 4.46 µM)
- MIC [22]: 1.56 µg/mL
- MIC [23]: 1.56 µg/mL
- MIC [24]: 1.56 µg/mL
- MIC [37]: 1.56 µg/mL
- MIC [25]: 1.56 µg/mL
- MIC [38]: 0.5 µg/mL (≈ 1.43 µM)
- MIC [11]: 2 µg/mL (≈ 5.72 µM)
- MIC [12]: 4 µg/mL (≈ 11.4 µM)

Structure (SMILES): CC(=O)N1CCN(c2ccc(OCC3COC(Cn4ccnc4)(c4ccc(Cl)cc4Cl)O3)cc2)CC1 (stereo unspecified) [KETOCONAZOLE]
- diameter of the inhibition zone (DIZ) [39]: 14 mm
- diameter of the inhibition zone (DIZ) [40]: 14 mm
